The target of assay [1] is T1, c-Src kinase domain (Homo sapiens, UniProt P12931). Nature of the assay: pTyr-Var library bacterial peptide display kinase screen (enrichment scores). To be noted: sheet "Src". In kind it is biochemical.
The test system of assay [2] is Fer kinase domain. The assay is described as above. In kind it is biochemical, mouse. The note with it: sheet "Fer".
In assay [3] the test system is EPHB1 kinase domain. The assay is described as above. The class given is biochemical, human. To be noted: for Screen: sheet EPHB1, effect of the variant peptide relative to its reference peptide in the pTyr-Var library screen (enrichment scores); for Screen (variant relative to reference peptide, measured in the pTyr-Var library screen): sheet "EPHB1", variant seq vs reference seq, bacterial peptide display enrichment.

Assay [4] deals with EPHB2 kinase domain. The description is as above. In kind it is biochemical, human. To be noted: sheet EPHB2.
The target in assay [5] is T2, c-Abl kinase domain (Mus musculus, UniProt P00520).
T2 sequence (P00520 242-493 limits assumed): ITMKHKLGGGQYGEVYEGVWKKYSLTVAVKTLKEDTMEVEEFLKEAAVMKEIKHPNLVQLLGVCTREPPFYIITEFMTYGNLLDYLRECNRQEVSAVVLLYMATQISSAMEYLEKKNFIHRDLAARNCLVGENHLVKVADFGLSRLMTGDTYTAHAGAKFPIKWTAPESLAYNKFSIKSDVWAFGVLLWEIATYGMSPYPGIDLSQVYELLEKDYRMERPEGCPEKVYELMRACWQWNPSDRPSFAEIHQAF
The assay is described as above. In kind it is biochemical.

In assay [6] the target is T1, c-Src kinase domain. Nature of the assay: RP-HPLC assay to measure peptide phosphorylation kinetics. The class given is biochemical. To be noted: purified peptide substrate.
Assay [7] addresses human c-Src kinase domain (residues 260-528) (human) (UniProt P12931).
[8] abbreviates: effect of the variant peptide relative to its reference peptide in the pTyr-Var library screen.
Where [9] appears, read: value of the variant peptide against its reference peptide in the pTyr-Var library screen with Fer.
Where [10] appears, read: effect of variant peptide relative to its reference peptide in the pTyr-Var library screen (enrichment scores).
[11] abbreviates: variant peptide versus its reference peptide in the pTyr-Var library screen.
[12] abbreviates: variant peptide relative to its reference peptide, pTyr-Var library screen enrichment.
Where [13] appears, read: fig5-data2, sheet "Abl", Screen for the variant/reference peptide pair, pTyr-Var library.
The mark [14] stands for this setting: effect of the variant relative to its reference peptide in the pTyr-Var library screen.

Consider PHQTIYGALMI [FGF23_Y70_S71G], for which the Screen is recorded as -0.7948 in assay [1] (setting [8]), -2.622 in assay [2] (setting [9]), -3.192 in assay [3] and -2.622 in assay [4] (setting [10]).

Regarding VFLGAYDCFLP [SLC22A5_Y486_R488C_YF], the Screen in assay [1] (setting [11]) came out at 0.189; in assay [2] (setting [12]), 1.979; in assay [4] (setting [10]) it was 1.473. The “Screen (variant relative to reference peptide, measured in the pTyr-Var library screen)” value in assay [3] was determined as 1.419.

For ADARMYGVLLW [PLP1_Y207_P211L], the Screen in assay [1] (setting [11]) was -0.7224; in assay [4] (setting [10]), -1.961.

Consider ADARMYGDLPW [PLP1_Y207_V209D], for which the figures for the Screen in assay [1] (setting [11]) and in assay [4] (setting [10]) were -1.273 and -2.321, respectively.

Consider LFEDHYLLGTS [ASS1_Y87_R86H_YF], for which the figures for the Screen in assay [3] and in assay [4] (setting [10]) were -1.664 and -0.9482, respectively.

Turning to RNEAFYDTFST [EFCAB3_Y372_S370A], the Screen in assay [1] (setting [8]) is on record as -0.05343; in assay [5] (setting [13]), 0.8648; in assay [2] (setting [9]), -0.7665; in assay [3], -3.139; in assay [4] (setting [10]), -2.77.

Turning to SISFDYCRVPM [BST2_Y8_T4I_YF], the Screen in assay [3] is on record as -2.179; in assay [4] (setting [10]), -2.162.

On to LEHCQYVTQKV [ALDOB_Y204_E207Q], for which the Screen in assay [2] (setting [9]) is given as -1.432; in assay [3], -0.6551; in assay [4] (setting [10]), -0.3412.

Consider WSFNLYDINKD [KCNIP3_Y174_A170S], for which the Screen is recorded as -1.011 in assay [1] (setting [8]), -0.8483 in assay [2] (setting [9]) and -1.005 in assay [4] (setting [10]).

With Ac-AGQEKYSAMRD-NH2 [HRAS-Y64-E63K], the “Phosphorylation Rate” value in assay [6] stood at 0.027 s⁻¹.

On to “Ac-GPDEPIYDMFPFKKKG-NH2 [Src Consensus (C-2P), Src Consensus variant with –2 Pro]”, for which the “Phosphorylation Rate” value in assay [6] was 12.667 s⁻¹.

RWQQLYDTLNA [EIF3M_Y351_Q346R]: the Screen in assay [1] (setting [8]) is -0.1; in assay [2] (setting [9]), -0.4426; in assay [3], -0.05321; in assay [4] (setting [10]), 0.365.

Regarding IFLGAYDRFLP [SLC22A5_Y486_V481I_YF], the Screen is reported as -0.1658 in assay [1] (setting [11]) and -0.2361 in assay [4] (setting [10]).

With EVEPTYVVLFD [ERCC4_Y577_R576T_YF], the Screen in assay [1] (setting [8]) is given as 2.973; in assay [3] it was 1.659; in assay [4] (setting [10]) it was 2.191.

Consider TLSGIYQFSIA [FOXL2_Y81_I84S_YF], for which the Screen in assay [1] (setting [8]) was -0.1944; in assay [2] (setting [9]), -1.302; in assay [3], -3.13; in assay [4] (setting [10]) it was -3.18.

The molecule VFPIDYFFPPQ [AR_Y552_L548F_YF] registered a Screen in assay [4] (setting [10]) of 0.813.

Turning to SEEVNYATLTF [CLEC12B_Y7_T6N], the Screen in assay [1] (setting [8]) is -1.881; in assay [5] (setting [13]) it was 1.648; in assay [2] (setting [9]) it was -0.6417; in assay [3] it was 0.955.

Regarding ATKNDYWAMLA [WWOX_Y287_P282A], the Screen is recorded as -2.008 in assay [5] (sheet "Abl", effect of variant peptide relative to its reference peptide in pTyr-Var library screen (enrichment)) and -0.4918 in assay [4] (setting [14]). Also, the “Screen (variant relative to reference peptide, measured in the pTyr-Var library screen)” value in assay [3] is on record as -0.006784.

KNEIFYQCPDQ [FBXO3_Y223_V221I]: the Screen in assay [2] (setting [9]) is -0.5331; in assay [4] (setting [10]), -0.9058.

With IVEELYAIPPD [PEAK1_Y797_S792I], the Screen in assay [1] (setting [11]) is reported as -0.02431; in assay [2] (setting [9]) it was 0.2222; in assay [3], 0.4436; in assay [4] (setting [10]) it was -0.0205.

As for HNLPIYEGFAL [ACTA1_Y168_V165L_YF], the Screen is -0.1626 in assay [1] (setting [8]); 0.278 in assay [5] (setting [13]); -0.04484 in assay [2] (setting [9]); -0.3324 in assay [3]; -0.1826 in assay [4] (setting [10]).

For the molecule GREFIYVDPMQ [PDGFRA_Y574_H570R_YF], the Screen is -0.9351 in assay [1] (setting [11]), -1.733 in assay [2] (setting [9]), -0.6275 in assay [3] and -0.4123 in assay [4] (setting [10]).

Turning to GHEFIYVDRMQ [PDGFRB_Y581_P584R_YF], the Screen in assay [1] (setting [11]) is recorded as -0.3711; in assay [2] (setting [9]), -2.31; in assay [3] it was -3.432; in assay [4] (setting [10]) it was -3.317.

As to QNTGVYFDLFG [PTPN11_Y62_D61V_YF], the Screen in assay [1] (setting [11]) is 0.4058; in assay [5] (setting [13]) it was 0.3099; in assay [3], -3.507; in assay [4] (setting [10]), -4.12.

As for MKNDLYQTPLH [NFKB1_Y582_R578K], the Screen is given as -0.3133 in assay [1] (setting [11]), -0.9562 in assay [2] (setting [9]) and -1.089 in assay [4] (setting [10]).

FQEPVYSVAFS [TBL1X_Y509_H504Y_YF]: the Screen in assay [1] (setting [11]) was -0.2752; in assay [2] (setting [12]), -0.4973; in assay [4] (setting [10]), -0.3359. Moreover, the “Screen (variant relative to reference peptide, measured in the pTyr-Var library screen)” value in assay [3] was -0.4923.

For the molecule “Ac-LERFIYNREEL-NH2 [HLA-DPB1_Y59_F64L_YF, pTyr-Var library variant peptide, non-canonical c-Src substrate]”, in assay [6], the “Phosphorylation Rate” value came out at 0.258 s⁻¹. The same molecule had a Screen in assay [1] (setting [8]) of 0.2529.

Turning to LSIQTYSALNF [DES_Y423_P419S], the Screen is given as -0.607 in assay [1] (setting [8]), -2.047 in assay [2] (setting [9]), -1.829 in assay [3] and -1.403 in assay [4] (setting [10]).

On to HHIDFYKETTN [FGFR1_Y654_K656E_YF], for which the Screen in assay [4] (setting [10]) is listed as 2.27.

Consider ADGLEYSRTEL [MMUT_Y287_G291E], for which the Screen in assay [4] (setting [10]) is -1.172.

As to Ac-WDLSEYSFKDP-NH2 [ITGA3_Y237_YF], in assay [6], the “Phosphorylation Rate” value was determined as 0.555 s⁻¹.

With “Ac-GPDESIYDMFPFKKKG-NH2 [Src Consensus (C-2S), Src Consensus variant with –2 Ser]”, the “Phosphorylation Rate” value in assay [6] was determined as 5.171 s⁻¹.

For FEDTLYTVLHR [UNC13D_Y61_A59T_YF], the results for the Screen in assay [1] (setting [11]), in assay [2] (setting [12]) and in assay [4] (setting [14]) were -0.1643, -0.9596 and -1.461, respectively. Besides, the “Screen (variant relative to reference peptide, measured in the pTyr-Var library screen)” value in assay [3] is -0.7483.

Take ADELEYSRTGL [MMUT_Y287_G284E]: the Screen in assay [4] (setting [10]) is -1.178.

Take KSNSDYVDVLP [SH2D1B_Y127_N122K]: in assay [3], the “Screen (variant relative to reference peptide, measured in the pTyr-Var library screen)” value is on record as -0.2971. In assay [4] (setting [10]), the Screen is recorded as -0.9717.

QSSALYEDCFL [ASS1_Y83_R86C_YF]: the Screen came to 1.263 in assay [1] (setting [8]), 0.6979 in assay [2] (setting [9]), 1.322 in assay [3] and 1.929 in assay [4] (setting [10]).

For the molecule FCRITYDIFPF [INTS13_Y67_M66T_YF], the Screen in assay [1] (setting [8]) is reported as -0.3434; in assay [5] (setting [13]), 1.32; in assay [3], -0.0851; in assay [4] (setting [10]) it was 0.3565.

For the molecule HNLNFYKKTTN [FGFR3_Y648_D646N_YF], the Screen in assay [1] (setting [8]) is reported as -1.956; in assay [2] (setting [9]), -1.085; in assay [3], -1.233; in assay [4] (setting [10]) it was -1.314.

Consider Ac-GAEEEIYGIFGAKKKG-NH2 [SrcTide (2014) peptide Ac-…-NH2], for which the KM (μM) of phosphorylation, Michaelis-Menten analysis, ADP-Quest assay in assay [7] amounted to 7 µM.

Turning to Ac-GAEEEIYGEFEAKKKG-NH2 [SrcTide (1995) peptide Ac-…-NH2], the KM (μM) of phosphorylation, Michaelis-Menten analysis, ADP-Quest assay in assay [7] is 64 µM.

Source of the values: paper PMC10065799, “High-throughput profiling of sequence recognition by tyrosine kinases and SH2 domains using bacterial peptide display” (eLife, 2023).
